Measured values reported in patent US7304075B2, “Stabilized liquid preparation” (Daiichi Pharmaceutical Co., Ltd., priority 2001, dated 2007).

Assays:
Type in all cases: physicochemical
[1] = Light stability of aqueous sitafloxacin solution (white fluorescent tube irradiation); conditions: 1 mg/ml aqueous solution; for Transmission (%): T % at 430 nm
Procedure: To 160 ml of WFI were added 213.2 mg of sitafloxacin (active ingredient: 200 mg) and a varied amount of sodium chloride (0 mg for control, 20 mg, 100 mg, 200 mg, 1 g, 2 g, 4 g, 6 g or 10 g) or, for comparison, 10 g of D-sorbitol. Further, 5 ml of 0.1 mol/l aqueous hydrochloric acid was slowly added, followed by stirring for 30 mintues to dissolve sitafloxacin and sodium chloride. The nine kinds of solution each was adjusted to pH 4.0 by addition of 0.1 mol/l aqueous sodium hydroxide, and WFI was added to make 200 ml. Ten milliliter portions of the resulting aqueous solution were put into colorless ampules.
• (1) pH: Measured with a pH meter (F-16, supplied by Horiba, Ltd.). • (2) Osmotic pressure: Measured with an osmometer (3C2, supplied by Advanced Instrument, Inc.). • (3) (Light) Transmission: A transmission at 430 nm was measured with a Beckman DU-640 spectrophotometer. • (4) Retention: The content of sitafloxacin of the irradiated samples was determined as follows to calculate retention (%).
A test solution was prepared by accurately measuring 2 ml of a sample, adding an accurately measured equal amount of an internal standard solution, adding a mobile phase to make 20 ml, and mixing a 5 ml aliquot of the resulting solution with the mobile phase to make 20 ml.
A standard sitafloxacin solution was prepared by dissolving sitafloxacin for quantitative analysis (whose water content had been measured previously) precisely weighing about 0.1 g in the mobile phase to make a solution accurately measuring 100 ml, adding to an accurate 5 ml aliquot of the solution an accurately measured equal amount of the internal standard solution, adding the mobile phase to make 100 ml, and after thoroughly stirring, filtering the solution through a membrane filter. The test solution and the standard solution each measuring 10 μl were subjected to liquid chromatography under the following conditions. Ratios of the peak areas of sitafloxacin of the test solution or the standard solution to the peak area of the internal standard, QT and QS, were obtained, and the sitafloxacin content was determined according to the following equation. Sitafloxacin (C19H18ClF2N3O3) content (% to nominal amount)=amount (mg) of sitafloxacin for quantitative analysis (on dry basis)×(QT/QS)×(¼)×( 1/25)×100 wherein;
A standard solution was prepared by weighing 0.100 g of sitafloxacin for quantitative analysis (whose water content had been measured previously), adding a mobile phase to accurately make 100 ml, and adding the mobile phase to an accurately measured aliquot (1 ml) of the solution to make 100 ml.
A 10 μl aliquot of a sample and the standard solution was subjected to liquid chromatography under the following conditions, and the peak areas of the respective solutions were calculated by automatic integration to obtain the total content of sitafloxacin related substances.
Each of the 1 mg/ml aqueous solutions of sitafloxacin was irradiated with light of a white fluorescent tube (2500 lux×5 days: 300,000 lux·hr), and the same measurements as described above were repeated.

[2] = as above; conditions: sodium chloride-containing aqueous solution adjusted to pH 4.0, versus aqueous solutions without sodium chloride
[3] = Water solubility of free sitafloxacin; conditions: around a neutral pH
[4] = Initial, 5% D-sorbitol in place of sodium chloride
[5] = Irradiated (300,000 lux·hr), 5% D-sorbitol in place of sodium chloride
[6] = Irradiated (300,000 lux·hr), NaCl 0%
[7] = Irradiated (300,000 lux·hr), NaCl 0.01%
[8] = Irradiated (300,000 lux·hr), NaCl 0.05%
[9] = Irradiated (300,000 lux·hr), NaCl 0.10%
[10] = Irradiated (300,000 lux·hr), NaCl 0.50%
[11] = Irradiated (300,000 lux·hr), NaCl 1.0%
[12] = Irradiated (300,000 lux·hr), NaCl 2.0%
[13] = Irradiated (300,000 lux·hr), NaCl 3.0%
[14] = Irradiated (300,000 lux·hr), NaCl 5.0%

For `N[C@@H]1CN(c2c(F)cc3c(=O)c(C(=O)O)cn([C@@H]4C[C@@H]4F)c3c2Cl)CC12CC2` [sitafloxacin, (−)-7-[(7S)-7-amino-5-azaspiro[2.4]heptan-5-yl]-8-chloro-6-fluoro-1-[(1R,2S)-2-fluoro-1-cyclopropyl]-1,4-dihydro-4-oxo-3-quinolinecarboxylic acid], the “Total Related substances (%)” value [1, 4] was 0.30%, the pH [1, 4] was 4.3 and the “Transmission (%)” value [1, 4] was 77.2%. The “Total Related substances (%)” value ([1]; Initial, NaCl 0%) was 0.31%, the pH ([1]; Initial, NaCl 0%) was 4.2 and the “Transmission (%)” value ([1]; Initial, NaCl 0%) was 77.6%. The “Total Related substances (%)” value ([1]; Initial, NaCl 0.01%) was 0.30%, the pH ([1]; Initial, NaCl 0.01%) was 4.4 and the “Transmission (%)” value ([1]; Initial, NaCl 0.01%) was 77.1%. For the same compound, the “Total Related substances (%)” value ([1]; Initial, NaCl 0.05%) was 0.29%, the pH ([1]; Initial, NaCl 0.05%) was 4.3 and the “Transmission (%)” value ([1]; Initial, NaCl 0.05%) was 76.8%. For the same compound, the “Total Related substances (%)” value ([1]; Initial, NaCl 0.10%) was 0.26%, the pH ([1]; Initial, NaCl 0.10%) was 4.3 and the “Transmission (%)” value ([1]; Initial, NaCl 0.10%) was 76.7%. For the same compound, the “Total Related substances (%)” value ([1]; Initial, NaCl 0.50%) was 0.28%, the pH ([1]; Initial, NaCl 0.50%) was 4.2 and the “Transmission (%)” value ([1]; Initial, NaCl 0.50%) was 75.6%. For the same compound, the “Total Related substances (%)” value ([1]; Initial, NaCl 1.0%) was 0.30%, the pH ([1]; Initial, NaCl 1.0%) was 4.3 and the “Transmission (%)” value ([1]; Initial, NaCl 1.0%) was 74.7%. For the same compound, the “Total Related substances (%)” value ([1]; Initial, NaCl 2.0%) was 0.31%, the pH ([1]; Initial, NaCl 2.0%) was 4.3 and the “Transmission (%)” value ([1]; Initial, NaCl 2.0%) was 73.1%. For the same compound, the “Total Related substances (%)” value ([1]; Initial, NaCl 3.0%) was 0.30%, the pH ([1]; Initial, NaCl 3.0%) was 4.3 and the “Transmission (%)” value ([1]; Initial, NaCl 3.0%) was 72.8%. For the same compound, the “Total Related substances (%)” value ([1]; Initial, NaCl 5.0%) was 0.30%, the pH ([1]; Initial, NaCl 5.0%) was 4.3 and the “Transmission (%)” value ([1]; Initial, NaCl 5.0%) was 70.7%. For the same compound, the “Retention (per Initial %)” value [1, 5] was 86.6%, the “Total Related substances (%)” value [1, 5] was 5.90% and the pH [1, 5] was 3.5. For the same compound, the “Transmission (%)” value [1, 5] was 56.8%, the “Retention (per Initial %)” value [1, 6] was 84.2% and the “Total Related substances (%)” value [1, 6] was 5.90%. The pH [1, 6] was 3.4, the “Transmission (%)” value [1, 6] was 47.1% and the “Retention (per Initial %)” value [1, 7] was 87.9%. For the same compound, the “Total Related substances (%)” value [1, 7] was 5.21%, the pH [1, 7] was 3.7 and the “Transmission (%)” value [1, 7] was 52.8%. For the same compound, the “Retention (per Initial %)” value [1, 8] was 91.7%, the “Total Related substances (%)” value [1, 8] was 3.84% and the pH [1, 8] was 3.8. For the same compound, the “Transmission (%)” value [1, 8] was 61.0%, the “Retention (per Initial %)” value [1, 9] was 93.5% and the “Total Related substances (%)” value [1, 9] was 3.02%. For the same compound, the pH [1, 9] was 3.8, the “Transmission (%)” value [1, 9] was 64.4% and the “Retention (per Initial %)” value [1, 10] was 94.2%. The “Total Related substances (%)” value [1, 10] was 2.48%, the pH [1, 10] was 3.9 and the “Transmission (%)” value [1, 10] was 63.6%. The “Retention (per Initial %)” value [1, 11] was 94.7%, the “Total Related substances (%)” value [1, 11] was 2.02% and the pH [1, 11] was 3.9. The “Transmission (%)” value [1, 11] was 62.6%, the “Retention (per Initial %)” value [1, 12] was 94.0% and the “Total Related substances (%)” value [1, 12] was 2.30%. For the same compound, the pH [1, 12] was 3.8, the “Transmission (%)” value [1, 12] was 60.7% and the “Retention (per Initial %)” value [1, 13] was 95.5%. The “Total Related substances (%)” value [1, 13] was 2.01%, the pH [1, 13] was 3.9 and the “Transmission (%)” value [1, 13] was 61.0%. The “Retention (per Initial %)” value [1, 14] was 94.8%, the “Total Related substances (%)” value [1, 14] was 2.28% and the pH [1, 14] was 3.9. The “Transmission (%)” value [1, 14] was 57.6%, the “formation of related substances due to irradiation or the reduction in pH” value [2] was “more suppressed” and the water solubility [3] was “poor”.
